Reference: PMC12366332 (Applied and Environmental Microbiology, 2025)
Read-outs that look alike come from different tables or passages of the source. Square brackets hold non-standard residues; d marks the D form. Peptide text beside a SMILES is read from it. * marks the point of attachment. Butyryl = CCCC(=O)*

Key:
[1] = test system: X. fastidiosa subsp. fastidiosa IVIA 5387.2
[2] = test system: horse erythrocytes; conditions: red cells of horse, 50 µM
[3] = test system: tobacco leaves; conditions: 150 µM; after 48 h
[4] = test system: E. coli 0111:B4 LPS; type: biochemical, Escherichia coli

Row | SMILES | Bactericidal activity Reduction in viability (Log N0/N) ([1]; 12.5 µM) | Bactericidal activity Level ([1]; 50 µM) | Bactericidal activity Reduction in viability (Log N0/N) ([1]; 50 µM) | Hemolytic activity (%) [2] | Phytotoxicity: diameter of the lesion [3] | Bactericidal activity Reduction in viability (Log N0/N) ([1]; 3.1 µM) | LPS neutralization Ratio (treatment/NTC) [4]
1 | CCCC(=O)N[C@@H](CCCCN)C(=O)N[C@@H](CCCCN)C(=O)N[C@@H](CC(C)C)C(=O)N[C@H](Cc1ccccc1)C(=O)N[C@@H](CCCCN)C(=O)N[C@@H](CCCCN)C(=O)N[C@H](C(=O)N[C@@H](CC(C)C)C(=O)N[C@@H](CCCCN)C(=O)N[C@@H](Cc1ccc(O)cc1)C(=O)N[C@@H](CC(C)C)C(N)=O)[C@@H](C)CC [BP485, C3H7CO-KKLfKKILKYL-NH2] | 0,49 Log N0/N | Moderate (key: Very High: very high bactericidal activity (>2.5 log); High: high bactericidal activity (between 2.0 and 2.5 log); Moderate: a moderate activity (between 1.5 and 2.0 log); Low: low active (<1.5 log)) | 1,92 Log N0/N | 3% | 3 mm |  | 
2 | CCCCCCCCCCCC(=O)NCCCC[C@H](NC(=O)[C@@H](NC(=O)[C@H](CCCCN)NC(=O)[C@H](CCCCN)NC(=O)[C@@H](Cc1ccccc1)NC(=O)[C@H](CC(C)C)NC(=O)[C@H](CCCCN)NC(=O)[C@H](CCCCN)NC(C)=O)[C@@H](C)CC)C(=O)N[C@@H](CCCCN)C(=O)N[C@@H](Cc1ccc(O)cc1)C(=O)N[C@@H](CC(C)C)C(N)=O [BP490, Ac-KKLfKKIK(COC11H23)KYL-NH2] |  | High (key: Very High: very high bactericidal activity (>2.5 log); High: high bactericidal activity (between 2.0 and 2.5 log); Moderate: a moderate activity (between 1.5 and 2.0 log); Low: low active (<1.5 log)) |  | 100% | 6 mm | 1,28 Log N0/N | 
3 | CCCCCC(=O)NCCCC[C@H](NC(=O)[C@H](CCCCN)NC(=O)[C@H](CCCCN)NC(=O)[C@@H](Cc1ccccc1)NC(=O)[C@H](CC(C)C)NC(=O)[C@H](CCCCN)NC(=O)[C@H](CCCCN)NC(C)=O)C(=O)N[C@@H](CC(C)C)C(=O)N[C@@H](CCCCN)C(=O)N[C@@H](Cc1ccc(O)cc1)C(=O)N[C@@H](CC(C)C)C(N)=O [BP494, Ac-KKLfKKK(COC5H11)LKYL-NH2] |  | Low (key: Very High: very high bactericidal activity (>2.5 log); High: high bactericidal activity (between 2.0 and 2.5 log); Moderate: a moderate activity (between 1.5 and 2.0 log); Low: low active (<1.5 log)) | 1,21 Log N0/N | 0% | 6 mm |  | 0,51
4 | CCCCCC(=O)NCCCC[C@H](NC(=O)[C@H](Cc1ccc(O)cc1)NC(=O)[C@H](CCCCN)NC(=O)[C@H](CC(C)C)NC(=O)[C@@H](NC(=O)[C@H](CCCCN)NC(=O)[C@H](CCCCN)NC(=O)[C@@H](Cc1ccccc1)NC(=O)[C@H](CC(C)C)NC(=O)[C@H](CCCCN)NC(=O)[C@H](CCCCN)NC(C)=O)[C@@H](C)CC)C(N)=O [BP495, Ac-KKLfKKILKYK(COC5H11)-NH2] | 0,03 Log N0/N | High (key: Very High: very high bactericidal activity (>2.5 log); High: high bactericidal activity (between 2.0 and 2.5 log); Moderate: a moderate activity (between 1.5 and 2.0 log); Low: low active (<1.5 log)) |  | 0% | 6 mm |  | 0,55
5 | CCCC(=O)NCCCC[C@H](NC(=O)[C@H](Cc1ccc(O)cc1)NC(=O)[C@H](CCCCN)NC(=O)[C@H](CC(C)C)NC(=O)[C@@H](NC(=O)[C@H](CCCCN)NC(=O)[C@H](CCCCN)NC(=O)[C@@H](Cc1ccccc1)NC(=O)[C@H](CC(C)C)NC(=O)[C@H](CCCCN)NC(=O)[C@H](CCCCN)NC(C)=O)[C@@H](C)CC)C(N)=O [BP496, Ac-KKLfKKILKYK(COC3H7)-NH2] (Ac-KKL[dF]KKILKYK(Butyryl)-NH2) |  | Low (key: Very High: very high bactericidal activity (>2.5 log); High: high bactericidal activity (between 2.0 and 2.5 log); Moderate: a moderate activity (between 1.5 and 2.0 log); Low: low active (<1.5 log)) | 0,69 Log N0/N | 0% | 4 mm |  | 0,92
6 | CCCC(=O)NCCCC[C@H](NC(=O)[C@@H](Cc1ccccc1)NC(=O)[C@H](CC(C)C)NC(=O)[C@H](CCCCN)NC(=O)[C@H](CCCCN)NC(C)=O)C(=O)N[C@@H](CCCCN)C(=O)N[C@H](C(=O)N[C@@H](CC(C)C)C(=O)N[C@@H](CCCCN)C(=O)N[C@@H](Cc1ccc(O)cc1)C(=O)N[C@@H](CC(C)C)C(N)=O)[C@@H](C)CC [BP498, Ac-KKLfK(COC3H7)KILKYL-NH2] |  | Moderate (key: Very High: very high bactericidal activity (>2.5 log); High: high bactericidal activity (between 2.0 and 2.5 log); Moderate: a moderate activity (between 1.5 and 2.0 log); Low: low active (<1.5 log)) | 1,58 Log N0/N | 9% | 7 mm |  | 0,40
7 | CCCC(=O)NCCCC[C@H](NC(=O)[C@H](CC(C)C)NC(=O)[C@@H](NC(=O)[C@H](CCCCN)NC(=O)[C@H](CCCCN)NC(=O)[C@@H](Cc1ccccc1)NC(=O)[C@H](CC(C)C)NC(=O)[C@H](CCCCN)NC(=O)[C@H](CCCCN)NC(C)=O)[C@@H](C)CC)C(=O)N[C@@H](Cc1ccc(O)cc1)C(=O)N[C@@H](CC(C)C)C(N)=O [BP499, Ac-KKLfKKILK(COC3H7)YL-NH2] |  | High (key: Very High: very high bactericidal activity (>2.5 log); High: high bactericidal activity (between 2.0 and 2.5 log); Moderate: a moderate activity (between 1.5 and 2.0 log); Low: low active (<1.5 log)) |  | 2% | 7 mm | 0,63 Log N0/N | 0,34
8 | CCCCCCCCCCCC(=O)NCCCC[C@H](NC(=O)[C@H](CCCCN)NC(=O)[C@H](CCCCN)NC(C)=O)C(=O)N[C@H](Cc1ccccc1)C(=O)N[C@@H](CCCCN)C(=O)N[C@@H](CCCCN)C(=O)N[C@H](C(=O)N[C@@H](CC(C)C)C(=O)N[C@@H](CCCCN)C(=O)N[C@@H](Cc1ccc(O)cc1)C(=O)N[C@@H](CC(C)C)C(N)=O)[C@@H](C)CC [BP500, Ac-KKK(COC11H23)fKKILKYL-NH2] |  | Low (key: Very High: very high bactericidal activity (>2.5 log); High: high bactericidal activity (between 2.0 and 2.5 log); Moderate: a moderate activity (between 1.5 and 2.0 log); Low: low active (<1.5 log)) | 1,37 Log N0/N | 99% | 8 mm |  | 
9 | CCCC(=O)NCCCC[C@H](NC(=O)[C@H](CCCCN)NC(=O)[C@H](CC(C)C)NC(=O)[C@@H](NC(=O)[C@H](CCCCN)NC(=O)[C@H](CCCCN)NC(=O)[C@H](Cc1c[nH]cn1)NC(=O)[C@H](CC(C)C)NC(=O)[C@H](CCCCN)NC(=O)[C@H](CCCCN)NC(C)=O)[C@@H](C)CC)C(=O)N[C@@H](CC(C)C)C(N)=O [BP501, Ac-KKLHKKILKK(COC3H7)L-NH2] (Ac-KKLHKKILKK(Butyryl)L-NH2) |  | Low (key: Very High: very high bactericidal activity (>2.5 log); High: high bactericidal activity (between 2.0 and 2.5 log); Moderate: a moderate activity (between 1.5 and 2.0 log); Low: low active (<1.5 log)) | 0,30 Log N0/N | 2% | 0 mm |  | 0,71
10 | CCCC(=O)NCCCC[C@H](NC(C)=O)C(=O)N[C@@H](CCCCN)C(=O)N[C@@H](CC(C)C)C(=O)N[C@H](Cc1ccccc1)C(=O)N[C@@H](CCCCN)C(=O)N[C@@H](CCCCN)C(=O)N[C@H](C(=O)N[C@@H](CC(C)C)C(=O)N[C@@H](CCCCN)C(=O)N[C@@H](Cc1ccc(O)cc1)C(=O)N[C@@H](CC(C)C)C(N)=O)[C@@H](C)CC [BP545, Ac-K(COC3H7)KLfKKILKYL-NH2] | 0,54 Log N0/N | High (key: Very High: very high bactericidal activity (>2.5 log); High: high bactericidal activity (between 2.0 and 2.5 log); Moderate: a moderate activity (between 1.5 and 2.0 log); Low: low active (<1.5 log)) |  | 5% | 4 mm |  | 0,56
11 | CCCC(=O)NCCCC[C@H](NC(=O)[C@H](CCCCN)NC(=O)[C@H](CCCCN)NC(C)=O)C(=O)N[C@H](Cc1ccccc1)C(=O)N[C@@H](CCCCN)C(=O)N[C@@H](CCCCN)C(=O)N[C@@H](CCCCN)C(=O)N[C@@H](CC(C)C)C(=O)N[C@@H](CCCCN)C(=O)N[C@@H](Cc1ccc(O)cc1)C(=O)N[C@@H](CC(C)C)C(N)=O [BP546, Ac-KKK(COC3H7)fKKKLKYL-NH2] (Ac-KKK(Butyryl)[dF]KKKLKYL-NH2) |  | Low (key: Very High: very high bactericidal activity (>2.5 log); High: high bactericidal activity (between 2.0 and 2.5 log); Moderate: a moderate activity (between 1.5 and 2.0 log); Low: low active (<1.5 log)) | 0,34 Log N0/N | 0% | 0 mm |  | 0,73
12 | CCCC(=O)NCCCC[C@@H](NC(=O)[C@H](CC(C)C)NC(=O)[C@H](CCCCN)NC(=O)[C@H](CCCCN)NC(C)=O)C(=O)N[C@@H](CCCCN)C(=O)N[C@@H](CCCCN)C(=O)N[C@H](C(=O)N[C@@H](CC(C)C)C(=O)N[C@H](C(=O)N[C@@H](Cc1ccc(O)cc1)C(=O)N[C@@H](CC(C)C)C(N)=O)[C@@H](C)CC)[C@@H](C)CC [BP547, Ac-KKLk(COC3H7)KKILIYL-NH2] |  | Low (key: Very High: very high bactericidal activity (>2.5 log); High: high bactericidal activity (between 2.0 and 2.5 log); Moderate: a moderate activity (between 1.5 and 2.0 log); Low: low active (<1.5 log)) | 0,05 Log N0/N | 0% | 2 mm |  | 0,99
